Structures are written as SMILES. Entries after “also recorded” stand apart in the source; their conditions may differ.

In one experiment the target is T1, HarmNPC2-1 (Helicoverpa armigera, UniProt A0A2W1BYA3). Put plainly: Competitive binding experiments (displacement of 1-NPN). The settings on record: competitive binding with 1-NPN, ligand 0.5–16 μM. Here is the method: (§1) Emission fluorescence spectra were recorded on a Horiba scientific Fluoromax-4 spectrofluorometer at room temperature in a right-angle configuration, with a 1 cm light path quartz cuvette and 5 nm slits for both excitation and emission. Proteins were dissolved in 50 mM Tris–HCl buffer, pH 7.4, while ligands were added as 1 mM methanol solutions.
T1 sequence (A0A2W1BYA3 entry or part of it): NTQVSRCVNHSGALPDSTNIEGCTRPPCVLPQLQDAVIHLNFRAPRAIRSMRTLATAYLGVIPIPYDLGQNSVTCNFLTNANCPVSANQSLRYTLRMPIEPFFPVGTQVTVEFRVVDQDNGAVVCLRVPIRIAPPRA
The probe was excited at 337 nm and emission spectra were recorded between 380 and 450 nm. […] Data obtained with 1-NPN were analyzed with Prism software.
On to `OCc1ccc2c(c1)OCO2` [piperonyl alcohol], for which the “binding / affinity for HarmNPC2-1 (in words)” value (“binding / affinity” below) is “failed to bind”.
For the compound `COc1cc(/C=C/C=O)ccc1O` [coniferyl aldehyde], the “binding / affinity” value is on record as “moderate binding”.
For `Cc1cc2c(C(C)C)c(O)c(O)c(C=O)c2c(O)c1-c1c(C)cc2c(C(C)C)c(O)c(O)c(C=O)c2c1O` [gossypol], the “binding / affinity” value was “best ligand; also recorded: the best”.
As for `COc1ccc([C@@H]2CC(=O)c3c(O)cc(O[C@@H]4O[C@H](CO[C@@H]5O[C@@H](C)[C@H](O)[C@@H](O)[C@H]5O)[C@@H](O)[C@H](O)[C@H]4O)cc3O2)cc1O` [hesperidin], the “binding / affinity” value is “the worst”.
The same measure, in the same setting: for `COc1cc(C=O)ccc1O` [vanillin] the value was “failed to bind”; for `C=CCc1ccc(O)c(OC)c1` [eugenol], “failed to bind”.
`COc1cc(CNC(=O)CCCC/C=C/C(C)C)ccc1O` [capsaicin]: the “binding / affinity” value is on record as “failed to bind”.
On to `O=C/C=C/c1ccccc1` [cinnamaldehyde], for which the “binding / affinity” value was “failed to bind”.

Still in this experiment, the particulars now being: concentrations up to 16 μM; protein and 1-NPN both 2 μM.
Regarding `OCc1ccc2c(c1)OCO2` [piperonyl alcohol], the “displacing the fluorescent probe from the complex” value (“displacing the fluorescent probe” for short) was “ineffective”.
Turning to `O=Cc1ccccc1O` [2-hydroxy benzaldehyde], the “displacing the fluorescent probe” value was “ineffective”.
Still for that read-out and setting: then `CCCC/C=C\CCCCCCCCCC=O` [(Z)-11-hexadecenal], with “ineffective”; and `CCCCCCCCCC=O` [decanal], with “ineffective”; and `CCCC/C=C\CCCCCCCCCCOC(C)=O` [(Z)-11-hexadecenyl acetate], with “ineffective”.
Consider `CCCCCCCO` [1-heptanol], for which the “displacing the fluorescent probe” value is listed as “ineffective”.
Still for that read-out and setting: then `O=CCc1ccccc1` [2-phenylacetaldehyde], with “ineffective”; and `C=CC(O)CCCCC` (centres unmarked) [1-octen-3-ol], with “ineffective”; and `CC1=C(C=O)C(C)(C)CC=C1` [safranal], with “ineffective”.
On the same count and under the same terms, for `CCCC(O)CC` (centres unmarked) [3-hexanol] the value was “ineffective”; for `CCCCCCCC(=O)O` [octanoic acid], “ineffective”; for `COc1ccc(C=O)cc1` [4-methoxy benzaldehyde], “ineffective”.
Still for that read-out and setting: then `O=Cc1ccccc1` [benzaldehyde], with “ineffective”.
With `CC(C)=CCC/C(C)=C/CC/C(C)=C/CO` [farnesol], the “displacing the fluorescent probe” value was “ineffective”.
Same read-out and setting: then `CC(C)=CCC[C@@H](C)CC=O` (racemic) [citronellal], with “ineffective”; and `CCCCCCCC=O` [octanal], with “ineffective”.
In the case of `CCCCC(C)O` (centres unmarked) [2-hexanol], the “displacing the fluorescent probe” value is listed as “ineffective”.
The same measure, in the same setting: for `C=C(C)C1CC=C(C)C(=O)C1` (centres unmarked) [carvone] the value was “ineffective”; for `C[C@]12CC[C@@H]3c4ccc(O)cc4CC[C@H]3[C@@H]1CC[C@@H]2O` [β-estradiol], “ineffective”; for `CCCCCC/C=C\CCCCCCCC=O` [(Z)-9-hexadecenal], “ineffective”.
As for `c1ccc2[nH]ccc2c1` [indole], the “displacing the fluorescent probe” value was “ineffective”.
For the compound `COC(=O)C=Cc1ccccc1` [methyl cinnamate], the “displacing the fluorescent probe” value is “ineffective”.
`CCCC/C=C\CCCCCCCCCCO` [(Z)-11-hexadecenol]: the “displacing the fluorescent probe” value is on record as “ineffective”.
The same measure, in the same setting: then `COc1cc(C=O)ccc1O` [vanillin], with “ineffective”; and `C=CCc1ccc(O)c(OC)c1` [eugenol], with “ineffective”; and `COc1cc(CNC(=O)CCCC/C=C/C(C)C)ccc1O` [capsaicin], with “ineffective”.
For `CC/C=C\CCO` [Z3-hexen-1-ol], the “displacing the fluorescent probe” value is “ineffective”.
On the same count and under the same terms, for `CCCCCCCCCC(=O)O` [decanoic acid] the value was “ineffective”.
Take `CC(=O)/C=C/C1=C(C)CCCC1(C)C` [β-ionone]: the “displacing the fluorescent probe” value was “ineffective”.
For `O=C/C=C/c1ccccc1` [cinnamaldehyde], the “displacing the fluorescent probe” value is reported as “ineffective”.
For `Cc1ccc(C=O)cc1` [4-methyl benzaldehyde], the “displacing the fluorescent probe” value is given as “ineffective”.
In the case of `CC/C=C\CC1C(=O)CCC1CC(=O)OC` (centres unmarked) [methyl jasmonate], the “displacing the fluorescent probe” value was “ineffective”.
On the same count and under the same terms, then `COC(=O)CC(C)CCC=C(C)C` (centres unmarked) [citronellic acid methyl ester], with “ineffective”; and `CCCC=CC=CC=O` [2,4-octadienal], with “ineffective”.

The next experiment deals with T1, HarmNPC2-1. Put plainly: Quenching of intrinsic tryptophan fluorescence. The note with it: Figure 2C. It counts as binding. On the procedure:
as §1
Consider `Cc1cc2c(C(C)C)c(O)c(O)c(C=O)c2c(O)c1-c1c(C)cc2c(C(C)C)c(O)c(O)c(C=O)c2c1O` [gossypol], for which the “quenching of intrinsic tryptophan fluorescence” value is “quenching of intrinsic tryptophan fluorescence in a dose-dependent fashion”.
`O=c1c(O)c(-c2ccc(O)c(O)c2)oc2cc(O)cc(O)c12` [quercetin]: the “quenching of intrinsic tryptophan fluorescence” value is reported as “quenching of intrinsic tryptophan fluorescence in a dose-dependent fashion”.

The record behind these values is PMC5810286, “Niemann-Pick C2 Proteins: A New Function for an Old Family” (Frontiers in Physiology, 2018).
